Experimental findings from US20240207245A1, “METHOD FOR INHIBITING METASTASIS OF TRIPLE-NEGATIVE BREAST CANCER USING ROSOXACIN” (National Yang Ming Chiao Tung University, priority 2022, published 2024) are described below.

Common to all, as to format: cell-based, human
Assay [1] has as its system highly metastatic breast cancer cell line (HMB cells). Kind of assay: Transwell Matrigel cell invasion assay, LPS-induced, HMB cells. The settings on record: LPS 1 μM + quinolone antibiotic 1 μM, 24 hours, compared with control group H2 (LPS only), FIG. 1. Here is the method:
(§1) In addition, the highly metastatic breast cancer cell line (abbreviated as HMB cells) used in the following experiments was obtained according to the following preparation processes: the MDA-MB-231 cells (2.5×10^6 cells) were injected into the mammary fat pad of a severe combined immune deficient (SCID) mice (purchased from BioLasco Taiwan Co., Ltd; 4 weeks old, with a body weight of approximately 20 g), and the triple-negative breast cancer cells metastasized to the lung of the SCID mice were harvested after 12 weeks. Next, the triple-negative breast cancer cells (2.5×10^6 cells) thus obtained were injected into the mammary fat pad of another SCID mice, and the HMB cells metastasized to the lung of the another SCID mice were harvested after 8 weeks.
The HMB cells prepared in section 1 of “General Experimental Materials” were divided into 8 groups, namely, two control groups (i.e., control groups H1 and H2), one experimental group (i.e., experimental group H), and five comparative groups (i.e., comparative groups H1 to H5). In addition, the MDA-MB-231 cells prepared in section 1 of “General Experimental Materials” were divided into three groups, namely, two control groups (i.e., control groups M1 and M2) and one experimental group (i.e., experimental group M).
Each group of the cells was seeded at a concentration of 1×10^5 cells per well into respective permeable Transwell® insert (Corning Inc.) for a 24-well plate.
Thereafter, the Transwell® inserts were placed into the 24-well plate that contained 0.6 mL of DMEM supplemented with 10% FBS in each well, followed by cultivation in a humidified incubator (37° C., 5% CO2, 95% relative humidity) for 24 hours.
Subsequently, the culture medium in each Transwell® insert was removed, and the respective Transwell® insert was washed with phosphate-buffered saline (PBS). The cells migrating through the polycarbonate membrane and attaching to the bottom side of the polycarbonate membrane were subjected to a fixation treatment with a 4% formaldehyde solution (in PBS) at room temperature for 15 minutes. Then, the non-migrating cells were removed using a cotton swab, followed by conducting staining using a 1% crystal violet solution according to techniques well-known to those skilled in the art. The number of the stained cells was counted under a Leica DMI3000 B inverted microscope (Leica Microsystems, Wetzlar, Germany) at 100× magnification, followed by analysis using Image-Pro Software (version 6.0).
The cell invasion percentage (%) of each group was calculated by substituting the thus obtained number of stained cells into the following Equation (I):
[formula] • where A=cell invasion percentage (%) • B=number of stained cells in respective group • C=number of stained cells in the control group H1 or the control group M1
(§2) The data thus obtained were analyzed according to the method described in section 1 of “General Procedures”.

In assay [2] the test system is MDA-MB-231 cells. Kind of assay: Transwell Matrigel cell invasion assay, LPS-induced, MDA-MB-231 cells. The settings on record: LPS 1 μM + rosoxacin 1 μM, 24 hours, compared with control group M2 (LPS only), FIG. 2.
Excerpt: Human breast cancer cell line MDA-MB-231 (ATCC HTB-26) was purchased from American Type Culture Collection (ATCC, Manassas, Va., USA).
The HMB cells prepared in section 1 of “General Experimental Materials” were divided into 8 groups, namely, two control groups (i.e., control groups H1 and H2), one experimental group (i.e., experimental group H), and five comparative groups (i.e., comparative groups H1 to H5). In addition, the MDA-MB-231 cells prepared in section 1 of “General Experimental Materials” were divided into three groups, namely, two control groups (i.e., control groups M1 and M2) and one experimental group (i.e., experimental group M). […]
Subsequently, the culture medium in each Transwell® insert was removed, and the respective Transwell® insert was washed with phosphate-buffered saline (PBS). […] The number of the stained cells was counted under a Leica DMI3000 B inverted microscope (Leica Microsystems, Wetzlar, Germany) at 100× magnification, followed by analysis using Image-Pro Software (version 6.0).
The cell invasion percentage (%) of each group was calculated by substituting the thus obtained number of stained cells into the following Equation (I): […]
as §2

The subject of assay [3] is highly metastatic breast cancer cell line (HMB cells). The assay can be described thus: Tumor-sphere formation assay, LPS-induced, HMB cells. The settings on record: LPS 1 μM + rosoxacin 1 μM, 21 days, compared with control group H2 (LPS only), FIG. 3. Here is the method:
as §1
The sphere formation medium used in this example was prepared by supplementing Gibco DMEM/F-12 medium with the ingredients shown in Table 3.
The HMB cells prepared in section 1 of “General Experimental Materials” were divided into three groups, namely, two control groups (i.e., control groups H1 and H2) and one experimental group (i.e., experimental group H). […]
The number of tumor spheres was counted under a Leica DMI3000 B inverted microscope (Leica Microsystems, Wetzlar, Germany) at 100× magnification.
as §2

Turning to `C[C@H]1NCc2cc(-c3ccc4c(=O)c(C(=O)O)cn(C5CC5)c4c3OC(F)F)ccc21` [Garenoxacin], in assay [1], the cell invasion percentage result was “substantially similar to that determined in the control group H2”.

Regarding `CCn1cc(C(=O)O)c(=O)c2ccc(-c3ccncc3)cc21` [rosoxacin, 1-ethyl-4-oxo-7-(4-pyridyl)-1,4-dihydroquinoline-3-carboxylic acid], the cell invasion percentage result in assay [1] is recorded as “significantly lower than that determined in the control group H2”; in assay [2], “significantly lower than that determined in the control group M2”. Also, the “number of tumor spheres” value in assay [3] is “significantly lower than that determined in the control group H2”.

With `CCn1cc(C(=O)O)c(=O)c2cc(F)c(N3CCNCC3)cc21` [Norfloxacin], the cell invasion percentage entry in assay [1] is listed as “substantially similar to that determined in the control group H2”.

Regarding `COc1c(N2CCNC(C)C2)c(F)cc2c(=O)c(C(=O)O)cn(C3CC3)c12` (stereo not shown) [Gatifloxacin], the cell invasion percentage entry in assay [1] is listed as “substantially similar to that determined in the control group H2”.

On to `NC1CCN(c2c(F)cc3c(=O)c(C(=O)O)cn(C4CC4)c3c2Cl)C1` (stereo not shown) [Clinafloxacin], for which, in assay [1], the cell invasion percentage result was “significantly higher than that determined in the control group H2”.
